Experimental data: patent US20200060276A1, “THIAZOLE COMPOUND AND HERBICIDE” (OAT Agrio Co., Ltd., priority 2017, published 2020)

How the values were obtained:
Assay type in all cases: in vivo
[1] = tested on: Scirpus juncoides; assay: Test for Herbicidal Effect in Flooding Treatment (#1), SCIJU; conditions: flooding treatment at seeding, dose 2 kg/ha, visual observation on day 21
Summary of the method: (§1)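 Visual scores from 0 (<10% inhibition) to 5 (≥90% or complete withering) were taken 21 days after treatment of glasshouse-grown plants. Seeds were sown in soil flooded for 24 h beforehand, and compound was applied dropwise onto the surface at 2 kg/ha as an acetone solution diluted in water with Tween 80.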

[2] = tested on: Echinochloa crus-galli (L.) P. Beauv. var. formosensis Ohwi; assay: Test for Herbicidal Effect in Flooding Treatment (#1), ECHDG; conditions: flooding treatment at seeding, dose 2 kg/ha, visual observation on day 21
Summary of the method: as §1

[3] = tested on: Monochoria vaginalis; assay: Test for Herbicidal Effect in Flooding Treatment (#1), MONVA; conditions: flooding treatment at seeding, dose 2 kg/ha, visual observation on day 21
Summary of the method: as §1

[4] = tested on: Echinochloa crus-galli (L.) P. Beauv. var. formosensis Ohwi; assay: Test for Herbicidal Effect in Flooding Treatment (#2), ECHDG at 2-2.5 leaf stage; conditions: for ECHDG (2-2.5L) #2 herbicidal effect (growth inhibition grade): flooding treatment at 2-2.5 leaf stage, dose 0.2 kg/ha, visual observation on day 21; for inhibition at 200 g/ha: Echinochloa crus-galli, 504 h, flooding treatment (#2), ECHDG at 2-2.5 leaf stage, dose of 0.2 kg/ha, day 21, visual observation, read-out: growth inhibition effect
Summary of the method: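 Flooded muddy soil was seeded with the weed, and at 2–2.5 leaf stage compound in acetone/Tween 80 water was dropped on the water surface at 0.2 kg/ha. Plants were kept in a glasshouse and scored visually on day 21 from 0 (<10% growth inhibition) to 5 (≥90% or complete withering).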

[5] = tested on: Cyperus microiria; assay: Test for Herbicidal Effect in Flooding Treatment (#1), CYMIC; conditions: flooding treatment at seeding, dose 2 kg/ha, visual observation on day 21
Summary of the method: as §1

COc1ccccc1CS(=O)(=O)c1ncc(Cl)s1 [Compound 1C-2]
SCIJU #1 herbicidal effect (growth inhibition grade) [1]: 5 (Growth inhibition effect is equal to or greater than 90%, or complete withering is achieved)
ECHDG #1 herbicidal effect (growth inhibition grade) [2]: 5 (Growth inhibition effect is equal to or greater than 90%, or complete withering is achieved)
MONVA #1 herbicidal effect (growth inhibition grade) [3]: 5 (Growth inhibition effect is equal to or greater than 90%, or complete withering is achieved)
ECHDG (2-2.5L) #2 herbicidal effect (growth inhibition grade) [4]: 5 (Growth inhibition effect is equal to or greater than 90%, or complete withering is achieved)
CYMIC #1 herbicidal effect (growth inhibition grade) [5]: 5 (Growth inhibition effect is equal to or greater than 90%, or complete withering is achieved)

COc1cccc(F)c1CS(=O)(=O)c1ncc(Cl)s1 [Compound 1C-5]
SCIJU #1 herbicidal effect (growth inhibition grade) [1]: 5 (Growth inhibition effect is equal to or greater than 90%, or complete withering is achieved)
ECHDG #1 herbicidal effect (growth inhibition grade) [2]: 5 (Growth inhibition effect is equal to or greater than 90%, or complete withering is achieved)
MONVA #1 herbicidal effect (growth inhibition grade) [3]: 5 (Growth inhibition effect is equal to or greater than 90%, or complete withering is achieved)
ECHDG (2-2.5L) #2 herbicidal effect (growth inhibition grade) [4]: 5 (Growth inhibition effect is equal to or greater than 90%, or complete withering is achieved)
CYMIC #1 herbicidal effect (growth inhibition grade) [5]: 5 (Growth inhibition effect is equal to or greater than 90%, or complete withering is achieved)

CCOc1ccccc1CS(=O)(=O)c1ncc(Cl)s1 [Compound 1C-8]
SCIJU #1 herbicidal effect (growth inhibition grade) [1]: 5 (Growth inhibition effect is equal to or greater than 90%, or complete withering is achieved)
ECHDG #1 herbicidal effect (growth inhibition grade) [2]: 5 (Growth inhibition effect is equal to or greater than 90%, or complete withering is achieved)
MONVA #1 herbicidal effect (growth inhibition grade) [3]: 5 (Growth inhibition effect is equal to or greater than 90%, or complete withering is achieved)
ECHDG (2-2.5L) #2 herbicidal effect (growth inhibition grade) [4]: 5 (Growth inhibition effect is equal to or greater than 90%, or complete withering is achieved)
CYMIC #1 herbicidal effect (growth inhibition grade) [5]: 5 (Growth inhibition effect is equal to or greater than 90%, or complete withering is achieved)

CCOc1c(C)cccc1CS(=O)(=O)c1ncc(Cl)s1 [Compound 1C-11]
SCIJU #1 herbicidal effect (growth inhibition grade) [1]: 5 (Growth inhibition effect is equal to or greater than 90%, or complete withering is achieved)
ECHDG #1 herbicidal effect (growth inhibition grade) [2]: 5 (Growth inhibition effect is equal to or greater than 90%, or complete withering is achieved)
MONVA #1 herbicidal effect (growth inhibition grade) [3]: 5 (Growth inhibition effect is equal to or greater than 90%, or complete withering is achieved)
ECHDG (2-2.5L) #2 herbicidal effect (growth inhibition grade) [4]: 5 (Growth inhibition effect is equal to or greater than 90%, or complete withering is achieved)
CYMIC #1 herbicidal effect (growth inhibition grade) [5]: 5 (Growth inhibition effect is equal to or greater than 90%, or complete withering is achieved)

CCOc1cccc(F)c1CS(=O)(=O)c1ncc(Cl)s1 [Compound 1C-19]
SCIJU #1 herbicidal effect (growth inhibition grade) [1]: 5 (Growth inhibition effect is equal to or greater than 90%, or complete withering is achieved)
ECHDG #1 herbicidal effect (growth inhibition grade) [2]: 5 (Growth inhibition effect is equal to or greater than 90%, or complete withering is achieved)
MONVA #1 herbicidal effect (growth inhibition grade) [3]: 5 (Growth inhibition effect is equal to or greater than 90%, or complete withering is achieved)
inhibition at 200 g/ha [4]: ≥ 90%
ECHDG (2-2.5L) #2 herbicidal effect (growth inhibition grade) [4]: 5 (Growth inhibition effect is equal to or greater than 90%, or complete withering is achieved)
CYMIC #1 herbicidal effect (growth inhibition grade) [5]: 5 (Growth inhibition effect is equal to or greater than 90%, or complete withering is achieved)

CCOc1c(F)cc(F)cc1CS(=O)(=O)c1ncc(Cl)s1 [Compound 1C-21]
SCIJU #1 herbicidal effect (growth inhibition grade) [1]: 5 (Growth inhibition effect is equal to or greater than 90%, or complete withering is achieved)
ECHDG #1 herbicidal effect (growth inhibition grade) [2]: 5 (Growth inhibition effect is equal to or greater than 90%, or complete withering is achieved)
MONVA #1 herbicidal effect (growth inhibition grade) [3]: 5 (Growth inhibition effect is equal to or greater than 90%, or complete withering is achieved)
inhibition at 200 g/ha [4]: ≥ 90%
ECHDG (2-2.5L) #2 herbicidal effect (growth inhibition grade) [4]: 5 (Growth inhibition effect is equal to or greater than 90%, or complete withering is achieved)
CYMIC #1 herbicidal effect (growth inhibition grade) [5]: 5 (Growth inhibition effect is equal to or greater than 90%, or complete withering is achieved)

CCOc1c(Cl)cc(F)cc1CS(=O)(=O)c1ncc(Cl)s1 [Compound 1C-22]
SCIJU #1 herbicidal effect (growth inhibition grade) [1]: 5 (Growth inhibition effect is equal to or greater than 90%, or complete withering is achieved)
ECHDG #1 herbicidal effect (growth inhibition grade) [2]: 5 (Growth inhibition effect is equal to or greater than 90%, or complete withering is achieved)
MONVA #1 herbicidal effect (growth inhibition grade) [3]: 5 (Growth inhibition effect is equal to or greater than 90%, or complete withering is achieved)
ECHDG (2-2.5L) #2 herbicidal effect (growth inhibition grade) [4]: 5 (Growth inhibition effect is equal to or greater than 90%, or complete withering is achieved)
CYMIC #1 herbicidal effect (growth inhibition grade) [5]: 5 (Growth inhibition effect is equal to or greater than 90%, or complete withering is achieved)

COc1cccc(CS(=O)(=O)c2ncc(Cl)s2)c1OC [Compound 1C-124]
SCIJU #1 herbicidal effect (growth inhibition grade) [1]: 5 (Growth inhibition effect is equal to or greater than 90%, or complete withering is achieved)
ECHDG #1 herbicidal effect (growth inhibition grade) [2]: 5 (Growth inhibition effect is equal to or greater than 90%, or complete withering is achieved)
ECHDG (2-2.5L) #2 herbicidal effect (growth inhibition grade) [4]: 4 (Growth inhibition effect is equal to or greater than 70%, and less than 90%)
CYMIC #1 herbicidal effect (growth inhibition grade) [5]: 5 (Growth inhibition effect is equal to or greater than 90%, or complete withering is achieved)

COc1ccc(CS(=O)(=O)c2ncc(Cl)s2)c(OC)c1 [Compound 1C-125]
SCIJU #1 herbicidal effect (growth inhibition grade) [1]: 5 (Growth inhibition effect is equal to or greater than 90%, or complete withering is achieved)
ECHDG #1 herbicidal effect (growth inhibition grade) [2]: 5 (Growth inhibition effect is equal to or greater than 90%, or complete withering is achieved)
ECHDG (2-2.5L) #2 herbicidal effect (growth inhibition grade) [4]: 5 (Growth inhibition effect is equal to or greater than 90%, or complete withering is achieved)
CYMIC #1 herbicidal effect (growth inhibition grade) [5]: 5 (Growth inhibition effect is equal to or greater than 90%, or complete withering is achieved)

COc1ccc(OC)c(CS(=O)(=O)c2ncc(Cl)s2)c1 [Compound 1C-126]
SCIJU #1 herbicidal effect (growth inhibition grade) [1]: 5 (Growth inhibition effect is equal to or greater than 90%, or complete withering is achieved)
ECHDG #1 herbicidal effect (growth inhibition grade) [2]: 5 (Growth inhibition effect is equal to or greater than 90%, or complete withering is achieved)
ECHDG (2-2.5L) #2 herbicidal effect (growth inhibition grade) [4]: 3 (Growth inhibition effect equal to or greater than 50%, and less than 70%)
CYMIC #1 herbicidal effect (growth inhibition grade) [5]: 5 (Growth inhibition effect is equal to or greater than 90%, or complete withering is achieved)

COc1cc(CS(=O)(=O)c2ncc(Cl)s2)cc(OC)c1OC [Compound 1C-128]
SCIJU #1 herbicidal effect (growth inhibition grade) [1]: 4 (Growth inhibition effect is equal to or greater than 70%, and less than 90%)
ECHDG #1 herbicidal effect (growth inhibition grade) [2]: 5 (Growth inhibition effect is equal to or greater than 90%, or complete withering is achieved)
ECHDG (2-2.5L) #2 herbicidal effect (growth inhibition grade) [4]: 1 (Growth inhibition effect is equal to or greater than 10%, and less than 30%)
CYMIC #1 herbicidal effect (growth inhibition grade) [5]: 5 (Growth inhibition effect is equal to or greater than 90%, or complete withering is achieved)

CN(C)c1cc(Cl)cc(CS(=O)(=O)c2ncc(Cl)s2)c1Cl [Compound 1C-170]
SCIJU #1 herbicidal effect (growth inhibition grade) [1]: 5 (Growth inhibition effect is equal to or greater than 90%, or complete withering is achieved)
ECHDG #1 herbicidal effect (growth inhibition grade) [2]: 5 (Growth inhibition effect is equal to or greater than 90%, or complete withering is achieved)
ECHDG (2-2.5L) #2 herbicidal effect (growth inhibition grade) [4]: 5 (Growth inhibition effect is equal to or greater than 90%, or complete withering is achieved)
CYMIC #1 herbicidal effect (growth inhibition grade) [5]: 5 (Growth inhibition effect is equal to or greater than 90%, or complete withering is achieved)

N#Cc1cccc(CS(=O)(=O)c2ncc(Cl)s2)c1 [Compound 1C-171]
SCIJU #1 herbicidal effect (growth inhibition grade) [1]: 5 (Growth inhibition effect is equal to or greater than 90%, or complete withering is achieved)
ECHDG #1 herbicidal effect (growth inhibition grade) [2]: 5 (Growth inhibition effect is equal to or greater than 90%, or complete withering is achieved)
ECHDG (2-2.5L) #2 herbicidal effect (growth inhibition grade) [4]: 3 (Growth inhibition effect equal to or greater than 50%, and less than 70%)
CYMIC #1 herbicidal effect (growth inhibition grade) [5]: 5 (Growth inhibition effect is equal to or greater than 90%, or complete withering is achieved)

N#Cc1ccc(CS(=O)(=O)c2ncc(Cl)s2)cc1 [Compound 1C-172]
SCIJU #1 herbicidal effect (growth inhibition grade) [1]: 5 (Growth inhibition effect is equal to or greater than 90%, or complete withering is achieved)
ECHDG #1 herbicidal effect (growth inhibition grade) [2]: 5 (Growth inhibition effect is equal to or greater than 90%, or complete withering is achieved)
ECHDG (2-2.5L) #2 herbicidal effect (growth inhibition grade) [4]: 2 (Growth inhibition effect is equal to or greater than 30%, and less than 50%)
CYMIC #1 herbicidal effect (growth inhibition grade) [5]: 5 (Growth inhibition effect is equal to or greater than 90%, or complete withering is achieved)
